pIC50: −log10 of the molar value. Where a name gives a salt, the structure may show the parent alone.
What was measured:
[1] = growth inhibition of uninfected mammalian cells (D98); type: cell-based; conditions: three days exposure, D-98 cells (human), read-out: Cell Toxicity (% of control at 100µm) D-98 Cells
Procedure: (§1) The capability of candidate compounds to inhibit the growth of D98 cells (human) and L cells (murine) was measured by determination of cell number following three days exposure of a standard number of cells to various dilutions of compound (Rideout, J. L., Krenitsky, T.A., Koszalka, G.W., Cohn, N.K., Chao, E.Y. Elion, G.B., Latter, V.S., and Williams, R.B. (1982) J. Med Chem. 25: 1040-1044). The cell number was then compared to the number obtained in the absence of compound. Cell enumeration was performed by either direct particle counts following trypsinization of the monolayer, or by spectrophotometric determination of the amount of vital stain taken up by the cells.
(§2) The concentration of compound resulting in 50% of control values (IC50) was calculated either by direct interpolation from graphs of the log of the compound concentration versus the percent of control value, or from a computer program which analyses the data according to the same algorithm. Data in the range of 20% to 80% of control were used in these calculations.

[2] = growth inhibition of uninfected mammalian cells (L cells); type: cell-based; conditions: mouse, three days exposure, L cells (murine), read-out: Cell Toxicity (% of control at 100µm) L-Cells
Procedure: as §1, §2

[3] = humans, after oral administration (background statement); cited from earlier work
[4] = tested on: Herpes Simplex Virus (HSV 1); test: plaque reduction assay of HSV 1 in monolayers of Vero cells; type: cell-based; conditions: HSV 1, Vero cells, read-out: IC₅₀
Procedure: Herpes Simplex Virus (HSV 1) was assayed in monolayers of Vero cells in multiwell trays. Activity of compounds was determined in the plaque reduction assay, in which a cell monolayer was infected with a suspension of HSV 1, and then overlaid with nutrient agarose in the form of a gel to ensure that there was no spread of virus throughout the culture. A range of concentrations of compound of known molarity was incorporated in the nutrient agarose overlay. Plaque numbers at each concentration were expressed as percentages of the control and a dose-response curve was drawn. From this curve the 50% inhibitory concentration (IC₅₀) was estimated.

[5] = oral bioavailability: urinary recovery as acyclovir after gavage; conditions: Long Evans rats, dose equivalent to 25 mg/kg acyclovir, urine collected 24 and 48 hours post-dose
Procedure: Long Evans Rats were adminstered the compound to be tested by gavage at a dose equivalent to 25 mg/kg acyclovir. The urine was collected for 24 and 48 hours post-dose, ultrafiltered, and analysed by reverse-phase high-pressure liquid chromatography. The oral bioavailability of the compound was expressed as the percent of the dose excreted in the urine as acyclovir.

SMILES	activity at 72 h, 100 µM [1]	activity at 72 h, 100 µM [2]	recovery in the urine [3]	pIC50 [4]	Urinary Recovery (% of dose) as acyclovir [5]
Nc1nc2c(ncn2COCCO)c(=O)[nH]1 [Acyclovir, 9-(2-Hydroxyethoxymethyl)guanine]	99%	72%	20%	7.00 to 7.10	–
CC(C)[C@H](N)C(=O)OCCOCn1cnc2c(=O)[nH]c(N)nc21 [Example 1B, 2-(2-Amino-1,6-dihydro-6-oxo-9H(purin-9-yl)methoxy) ethyl L-valinate hydrochloride monohydrate]	91%	85%	–	–	–
NCC(=O)OCCOCn1cnc2c(=O)[nH]c(N)nc21 [Glycyl ester of ACV]	–	–	–	–	30 % of dose
CC[C@H](C)[C@H](N)C(=O)OCCOCn1cnc2c(=O)[nH]c(N)nc21 [Example 2, 2-(2-amino-1,6-dihydro-6-oxo-9H(purin-9-yl)methoxy)ethyl L-isoleucinate hydrochloride]	80%	83%	–	5.42	50 % of dose
C[C@H](N)C(=O)OCCOCn1cnc2c(=O)[nH]c(N)nc21 [L -alanyl ester of ACV]	–	–	–	–	34 % of dose
